Measured values published in patent US11413292B2, “Tricyclic heterocycle compounds useful as HIV integrase inhibitors” (Merck Sharp & Dohme Corp., priority 2018, dated 2022).
Read-outs that look alike come from different tables or passages of the source.

System: HIV-1 (H9/IIIB strain) virus
Test: microbe, parasite or virus in culture
Assay type: cell-based
Details: MT4-GFP cells infected with HIV-1 H9/IIIB, inhibition of reproductive ratio
[1] = 100% normal human serum (NHS) condition, read-out: Viking, IC50 (100% NHS)
[2] = Human immunodeficiency virus 1, IIIB, 0% NHS condition (RPMI 1640), read-out: Viking, IC50 (0% NHS)
[3] = 0% NHS condition (RPMI 1640), read-out: Viking, IC50 (0% NHS)
[4] = 100% normal human serum (NHS) condition, 2,2,2-trifluoroacetate, read-out: Viking, IC50 (100% NHS)

| Compound | IC50 [1] [nM] | IC50 [2] [nM] | IC50 [3] [nM] | IC50 [4] [nM] | IC50 (0% NHS condition (RPMI 1640), 2,2,2-trifluoroacetate, read-out: Viking, IC50 (0% NHS)) [nM] |
| --- | --- | --- | --- | --- | --- |
| O=C(NCc1c(F)cc(F)cc1F)c1cn2c(c(O)c1=O)C(=O)N1CCCCCN2C1 (single isomer, unassigned) [Example 1A, 9-hydroxy-8,10-dioxo-N-(2,4,6-trifluorobenzyl)-3,4,5,6,8,10-hexahydro-2H-1,7-methanopyrido[1,2-b][1,2,5]triazecine-11-carboxamide] | 2560 | 1.98 |  |  |  |
| O=C(NCc1c(F)cc(F)cc1F)c1cn2c(c(O)c1=O)C(=O)N1CCCCCN2C1 (single isomer, unassigned) [Example 1B, 9-hydroxy-8,10-dioxo-N-(2,4,6-trifluorobenzyl)-3,4,5,6,8,10-hexahydro-2H-1,7-methanopyrido[1,2-b][1,2,5]triazecine-11-carboxamide] | 94.7 |  | 1 |  |  |
| O=C(NCc1ccc(F)cc1F)c1cn2c(c(O)c1=O)C(=O)N1CCCCCCN2C1 (single isomer, unassigned) [Example 3A, N-(2,4-difluorobenzyl)-10-hydroxy-9,11-dioxo-2,3,4,5,6,7,9,11-octahydro-1,8-methanopyrido[1,2-b][1,2,5]triazacycloundecine-12-carboxamide] | 589 | 2.66 |  |  |  |
| O=C(NCc1ccc(F)cc1F)c1cn2c(c(O)c1=O)C(=O)N1CCCCCCN2C1 (single isomer, unassigned) [Example 3B, N-(2,4-difluorobenzyl)-10-hydroxy-9,11-dioxo-2,3,4,5,6,7,9,11-octahydro-1,8-methanopyrido[1,2-b][1,2,5]triazacycloundecine-12-carboxamide] | 1880 |  | 5.23 |  |  |
| O=C(NCc1ccc(F)cc1F)c1cn2c(c(O)c1=O)C(=O)N1CCOCCN2C1 (single isomer, unassigned) [Example 4A, N-(2,4-difluorobenzyl)-9-hydroxy-8,10-dioxo-2,3,5,6,8,10-hexahydro-1,7-methanopyrido[1,2-e][1,4,5,8]oxatriazecine-11-carboxamide] | 9520 |  | 3.45 |  |  |
| O=C(NCc1ccc(F)cc1F)c1cn2c(c(O)c1=O)C(=O)N1CCOCCN2C1 (single isomer, unassigned) [Example 4B, N-(2,4-difluorobenzyl)-9-hydroxy-8,10-dioxo-2,3,5,6,8,10-hexahydro-1,7-methanopyrido[1,2-e][1,4,5,8]oxatriazecine-11-carboxamide] | 197 | 1.78 |  |  |  |
| COC1CCN2CN(CC1)n1cc(C(=O)NCc3c(F)cc(F)cc3F)c(=O)c(O)c1C2=O (single isomer, unassigned) [Example 5A, 9-hydroxy-4-methoxy-8,10-dioxo-N-(2,4,6-trifluorobenzyl)-3,4,5,6,8,10-hexahydro-2H-1,7-methanopyrido[1,2-b][1,2,5]triazecine-11-carboxamide] | 67.2 |  | 3.2 |  |  |
| COC1CCN2CN(CC1)n1cc(C(=O)NCc3c(F)cc(F)cc3F)c(=O)c(O)c1C2=O (single isomer, unassigned) [Example 5B, 9-hydroxy-4-methoxy-8,10-dioxo-N-(2,4,6-trifluorobenzyl)-3,4,5,6,8,10-hexahydro-2H-1,7-methanopyrido[1,2-b][1,2,5]triazecine-11-carboxamide] | 124 |  | 1.93 |  |  |
| COC1CCN2CN(CC1)n1cc(C(=O)NCc3c(F)cc(F)cc3F)c(=O)c(O)c1C2=O (single isomer, unassigned) [Example 5C, 9-hydroxy-4-methoxy-8,10-dioxo-N-(2,4,6-trifluorobenzyl)-3,4,5,6,8,10-hexahydro-2H-1,7-methanopyrido[1,2-b][1,2,5]triazecine-11-carboxamide] | 62.8 |  | 1.68 |  |  |
| COC1CCN2CN(CC1)n1cc(C(=O)NCc3c(F)cc(F)cc3F)c(=O)c(O)c1C2=O (single isomer, unassigned) [Example 5D, 9-hydroxy-4-methoxy-8,10-dioxo-N-(2,4,6-trifluorobenzyl)-3,4,5,6,8,10-hexahydro-2H-1,7-methanopyrido[1,2-b][1,2,5]triazecine-11-carboxamide] | 544 |  | 5.32 |  |  |
| CN1CCN2CN(CC1)n1cc(C(=O)NCc3c(F)cc(F)cc3F)c(=O)c(O)c1C2=O (single isomer, unassigned) [Example 6A, 9-hydroxy-4-methyl-8,10-dioxo-N-(2,4,6-trifluorobenzyl)-3,4,5,6,8,10-hexahydro-2H-1,7-methanopyrido[1,2-b][1,2,5,8]tetrazecine-11-carboxamide 2,2,2-trifluoroacetate] |  | 4.64 |  | 169 |  |
| CN1CCN2CN(CC1)n1cc(C(=O)NCc3c(F)cc(F)cc3F)c(=O)c(O)c1C2=O (single isomer, unassigned) [Example 6B, 9-hydroxy-4-methyl-8,10-dioxo-N-(2,4,6-trifluorobenzyl)-3,4,5,6,8,10-hexahydro-2H-1,7-methanopyrido[1,2-b][1,2,5,8]tetrazecine-11-carboxamide 2,2,2-trifluoroacetate] |  |  |  | 80.2 | 2.4 |
| O=C(NCc1c(F)cc(F)cc1F)c1cn2c(c(O)c1=O)C(=O)N1CCC(F)(F)CCN2C1 (single isomer, unassigned) [Example 7A, 4,4-difluoro-9-hydroxy-8,10-dioxo-N-(2,4,6-trifluorobenzyl)-3,4,5,6,8,10-hexahydro-2H-1,7-methanopyrido[1,2-b][1,2,5]triazecine-11-carboxamide] | 4460 |  | 6.1 |  |  |
| O=C(NCc1c(F)cc(F)cc1F)c1cn2c(c(O)c1=O)C(=O)N1CCC(F)(F)CCN2C1 (single isomer, unassigned) [Example 7B, 4,4-difluoro-9-hydroxy-8,10-dioxo-N-(2,4,6-trifluorobenzyl)-3,4,5,6,8,10-hexahydro-2H-1,7-methanopyrido[1,2-b][1,2,5]triazecine-11-carboxamide] | 73.9 |  | 2.16 |  |  |
| O=C(NCc1c(F)cc(F)cc1F)c1cn2c(c(O)c1=O)C(=O)N1CCC(O)CCN2C1 (single isomer, unassigned) [Example 17A] | 1270 |  | 66.1 |  |  |
| O=C(NCc1c(F)cc(F)cc1F)c1cn2c(c(O)c1=O)C(=O)N1CCC(O)CCN2C1 (single isomer, unassigned) [Example 17B] | 275 |  | 7.6 |  |  |
| O=C(NCc1c(F)cc(F)cc1F)c1cn2c(c(O)c1=O)C(=O)N1CCC(O)CCN2C1 (single isomer, unassigned) [Example 17C] | 5920 |  | 184 |  |  |
| O=C(NCc1c(F)cc(F)cc1F)c1cn2c(c(O)c1=O)C(=O)N1CCC(O)CCN2C1 (single isomer, unassigned) [Example 17D] | 717 |  | 25.6 |  |  |
| COC1CCN2CN(CC1)n1cc(C(=O)NCc3cccc(Cl)c3F)c(=O)c(O)c1C2=O (single isomer, unassigned) [Example 18A] | 279 |  | 3.1 |  |  |
| COC1CCN2CN(CC1)n1cc(C(=O)NCc3cccc(Cl)c3F)c(=O)c(O)c1C2=O (single isomer, unassigned) [Example 18B] | 435 |  | 2.5 |  |  |
| COC1CCN2CN(CC1)n1cc(C(=O)NCc3cccc(Cl)c3F)c(=O)c(O)c1C2=O (single isomer, unassigned) [Example 18C] | 1870 |  | 3.2 |  |  |
| COC1CCN2CN(CC1)n1cc(C(=O)NCc3cccc(Cl)c3F)c(=O)c(O)c1C2=O (single isomer, unassigned) [Example 18D] | 230 |  | 1.5 |  |  |
